What was measured:
Format in all cases: cell-based
Conditions in all cases: after 10, 20, 40 and 60 minutes at all dilutions 1:100, 1:200, 1:400, 1:800
Staphylococcus aereus = test: Antimicrobial testing by agar dilution, St. Aereus
Method: (§1) The antimicrobial properties of the 4-[4,4-bis(4-chlorophenyl)-2,5-dioxoimidazolidin-1-yl]butanoic acid were studied by the method of agar dilution. Test solutions of each compound was prepared in concentration of 1% using dimethylformamide as a solvent then they are diluted in physiological solution to obtain the final experimental dilutions 1:100, 1:200, 1:400, 1:800. The effect of these substances are compared with furacillin in a controllable study. The testing microbes used were gram positive bacteria Staphylococcus aereus, gram negative bacteria Escherichia Coli, Pseudomonas aeruginosa and Candida albicans fungi were taken. The experiments used for this survey were meat-pentonlu agar (EPA) for cultivation of bacteria and Saburo environment for fungi. Each experiment used iml of test solution on each plate 500 min. Add 2 drops of emulsified with microbes feel. All experimental samples were taken from the agar after 10, 20, 40, 60 minutes in the environment on the basis of Patrk planted. Bacteria were cultivated at a temperature of 37° C. for 1 day and the mushroom was kept in a thermostat for […] at a temperature of 28° C. in the. Then results were checked.

Escherichia Coli = test: Antimicrobial testing by agar dilution, E. Coli
Method: as §1

Pseudomonas aeruginosa = test: Antimicrobial testing by agar dilution, Ps. aeruginosa
Method: as §1

Candida albicans = test: Antimicrobial testing by agar dilution, Candida albicans
Method: as §1

Measured: inhibition activity (summary in words)

O=C(O)CCCN1C(=O)NC(c2ccc(Cl)cc2)(c2ccc(Cl)cc2)C1=O [4-[4,4-bis(4-chlorophenyl)-2,5-dioxoimidazolidin-1-yl]butanoic acid]
higher inhibition activity: all assays above

— US12172968B1, “4-[4,4-bis(4-chlorophenyl)-2,5-dioxoimidazolidin-1-yl]butanoic acid as an antimicrobial compound” (KING FAISAL UNIVERSITY, priority 2024, dated 2024)
